Laboratory results reported in the supplement of paper PMC10307832.

Key:
Assay in all cases: relative viability (nuclei count vs DMSO), 5 days (fraction); higher = more cells survive
Cediranib + Crizotinib = compound: COc1cc2c(Oc3ccc4[nH]c(C)cc4c3F)ncnc2cc1OCCCN1CCCC1 [Cediranib] + C[C@@H](Oc1cc(-c2cnn(C3CCNCC3)c2)cnc1N)c1c(Cl)ccc(F)c1Cl [Crizotinib] (partner 1 µM)
Summary of the method: (§1)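 Each reported value is a median over duplicate plates. It expresses relative viability: treated-well nuclei count divided by vehicle-well nuclei count. Lung cancer cell lines in 1536-well plates were dosed by pin tool a day after seeding, alone with one drug or with a fixed anchor-drug dose plus five library-drug doses (not always all listed) in √10 steps, and nuclei were counted after 5 days.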

Decitabine + Pictilisib = compound: Nc1ncn([C@H]2C[C@H](O)[C@@H](CO)O2)c(=O)n1 [Decitabine] + CS(=O)(=O)N1CCN(Cc2cc3nc(-c4cccc5[nH]ncc45)nc(N4CCOCC4)c3s2)CC1 [Pictilisib] (partner 1 µM)
Summary of the method: as §1

Cediranib + Bortezomib = compound: COc1cc2c(Oc3ccc4[nH]c(C)cc4c3F)ncnc2cc1OCCCN1CCCC1 [Cediranib] + CC(C)C[C@H](NC(=O)[C@H](Cc1ccccc1)NC(=O)c1cnccn1)B(O)O [Bortezomib] (partner 0.002 µM)
Summary of the method: as §1

Cediranib + Trametinib = compound: COc1cc2c(Oc3ccc4[nH]c(C)cc4c3F)ncnc2cc1OCCCN1CCCC1 [Cediranib] + CC(=O)Nc1cccc(-n2c(=O)n(C3CC3)c(=O)c3c(Nc4ccc(I)cc4F)n(C)c(=O)c(C)c32)c1 [Trametinib] (partner 0.02 µM)
Summary of the method: as §1

| Cell Line | relative viability (Cediranib + Crizotinib; first compound 0.04 µM) | relative viability (Cediranib + Crizotinib; first compound 0.1265 µM) | relative viability (Cediranib + Crizotinib; first compound 0.4 µM) | relative viability (Cediranib + Crizotinib; first compound 1.265 µM) | relative viability (Cediranib + Crizotinib; first compound 4 µM) | relative viability (Decitabine + Pictilisib; first compound 0.04 µM) | relative viability (Decitabine + Pictilisib; first compound 0.1265 µM) | relative viability (Decitabine + Pictilisib; first compound 0.4 µM) | relative viability (Decitabine + Pictilisib; first compound 1.265 µM) | relative viability (Decitabine + Pictilisib; first compound 4 µM) | relative viability (Cediranib + Bortezomib; first compound 0.04 µM) | relative viability (Cediranib + Bortezomib; first compound 0.1265 µM) | relative viability (Cediranib + Bortezomib; first compound 0.4 µM) | relative viability (Cediranib + Bortezomib; first compound 1.265 µM) | relative viability (Cediranib + Bortezomib; first compound 4 µM) | relative viability (Cediranib + Trametinib; first compound 0.04 µM) | relative viability (Cediranib + Trametinib; first compound 0.1265 µM) | relative viability (Cediranib + Trametinib; first compound 0.4 µM) | relative viability (Cediranib + Trametinib; first compound 1.265 µM) | relative viability (Cediranib + Trametinib; first compound 4 µM) |
| --- | --- | --- | --- | --- | --- | --- | --- | --- | --- | --- | --- | --- | --- | --- | --- | --- | --- | --- | --- | --- |
| NCI-H460 | 0.867 | 0.906 | 0.815 | 0.889 | 0.935 | 0.389 | 0.549 | 0.524 | 0.373 | 0.334 | 1.06 | 1.23 | 1.01 | 0.987 | 1.39 | 0.111 | 0.156 | 0.138 | 0.153 | 0.214 |
| LCLC-103H | 0.995 | 1.09 | 1.02 | 1.07 | 1.07 | 0.638 | 0.669 | 0.526 | 0.655 | 0.647 | 0.989 | 1.12 | 0.921 | 1.14 | 1.11 | 0.73 | 0.664 | 0.676 | 0.747 | 0.7 |
| HCC-827 | 0.931 |  | 0.869 | 0.951 | 0.976 | 0.511 | 0.63 | 0.618 | 0.505 | 0.62 | 1.03 |  | 0.967 | 1.11 | 1.08 | 0.6 | 0.791 | 0.529 | 0.539 | 0.497 |
| NCI-H322M | 0.894 | 1.05 | 0.887 | 0.904 | 0.945 | 0.408 | 0.537 | 0.53 | 0.397 | 0.424 | 1.29 | 1.56 | 1.32 | 1.24 | 1.28 | 0.475 | 0.489 | 0.526 | 0.528 | 0.568 |
| NCI-H1666 | 1.02 | 1.02 | 0.896 | 1.01 | 0.874 | 0.458 | 0.478 | 0.387 | 0.319 | 0.372 | 0.9 | 0.607 | 0.852 | 0.815 | 0.836 | 0.87 | 0.655 | 0.838 | 0.844 | 0.877 |
| NCI-H1437 | 0.966 | 0.87 | 0.823 | 0.892 | 0.879 | 0.455 | 0.408 | 0.287 | 0.172 | 0.166 | 0.55 | 0.407 | 0.554 | 0.565 | 0.673 | 0.521 | 0.449 | 0.509 | 0.625 | 0.621 |
| NCI-H1792 | 1.03 | 1.03 | 0.915 | 0.979 | 0.882 | 0.303 | 0.243 | 0.34 | 0.235 | 0.197 | 1.07 | 1.14 | 0.953 | 0.955 | 0.762 |  | 0.407 | 0.375 | 0.521 | 0.458 |
| NCI-H1355 | 1.1 | 0.977 | 1.08 | 0.992 | 1.31 | 0.529 | 0.44 | 0.293 | 0.254 | 0.23 | 1.18 | 1.17 | 1.23 | 1.24 | 1.21 | 0.401 | 0.432 | 0.417 | 0.439 | 0.464 |
| SK-LU-1 | 0.973 | 0.853 | 0.781 | 0.897 | 0.983 | 0.53 | 0.447 | 0.306 | 0.365 | 0.282 | 1.22 | 1.24 | 1.13 | 0.956 | 1.17 | 0.547 | 0.377 | 0.445 | 0.381 | 0.481 |
| NCI-H2228 | 0.54 | 0.562 | 0.545 | 0.419 | 0.327 | 0.355 | 0.441 | 0.179 | 0.287 | 0.232 | 1.16 | 1.09 | 0.991 | 1.35 | 1.14 | 0.46 | 0.376 | 0.398 | 0.565 | 0.505 |
| NCI-H2347 | 0.672 | 0.698 | 0.794 | 0.865 | 0.675 | 0.59 | 0.599 | 0.63 | 0.495 | 0.554 | 1.09 | 0.819 | 0.93 | 1.02 | 0.96 | 0.316 | 0.282 | 0.233 | 0.286 | 0.318 |
| A-427 | 0.946 |  | 0.829 | 0.866 | 0.884 | 0.42 | 0.663 | 0.244 | 0.359 | 0.219 | 0.998 |  | 0.972 | 0.925 | 1.01 | 0.747 |  | 0.717 | 0.684 | 0.737 |
| HCC-366 | 0.629 | 0.574 | 0.423 | 0.466 | 0.788 | 0.221 | 0.221 | 0.229 | 0.11 | 0.0886 | 0.968 | 1.03 | 0.963 | 0.888 | 1.22 | 0.384 | 0.404 | 0.301 | 0.327 | 0.398 |
| HCC-78 | 0.362 | 0.417 | 0.301 | 0.376 | 0.284 | 0.233 | 0.241 | 0.229 | 0.21 | 0.228 | 0.51 | 0.576 | 0.504 | 0.533 | 0.601 | 0.742 | 1.02 | 0.721 | 0.915 | 0.919 |
| PC-14 | 0.895 | 0.909 | 0.82 | 0.918 | 0.855 | 0.0668 | 0.749 | 0.348 | 0.28 | 0.11 | 0.889 | 0.831 | 0.734 | 0.878 | 0.902 | 0.862 | 0.664 | 0.66 | 0.582 | 0.519 |
| NCI-H2087 | 0.926 | 0.868 | 0.807 | 0.838 | 0.912 | 0.762 | 0.779 | 0.519 | 0.404 | 0.336 | 0.849 | 0.739 | 0.775 | 0.722 | 0.697 | 0.221 | 0.29 | 0.179 | 0.183 | 0.288 |
